Literature values as cited in PMC4041784, “Stereoselective Property of 20(S)-Protopanaxadiol Ocotillol Type Epimers Affects Its Absorption and Also the Inhibition of P-Glycoprotein” (PLoS ONE, 2014).

Columns and labels:
[1] = test system: peroxisome proliferator activated receptor-γ; set-up: method as in PMID 22234331
[2] = test system: human fecal microflora; set-up: method as in PMID 11824558
[3] = not told
[4] = set-up: method as in PMID 21258738, PMID 15734156

Compound | permeability [3] [×10⁻⁶ cm/s] | oral bioavailability [4] | other results
20(S)-Rg3 |  |  | peroxisome proliferator activated receptor-γ activity relative to 20(R)-Rg3 [1]: 10 fold; transformation amount into 20(S)-Rh2 or 20(S)-PPD relative to 20(R)-Rg3 [2]: 19 fold
CC(C)=CCC[C@@](C)(O)[C@H]1CC[C@]2(C)[C@@H]1[C@H](O)C[C@@H]1[C@@]3(C)CC[C@H](O[C@@H]4O[C@H](CO)[C@@H](O)[C@H](O)[C@H]4O)C(C)(C)[C@@H]3CC[C@]12C [20(R)-Rh2] | 0.02 |  | 
CC(C)=CCCC(C)(O)C1CCC2C1C(O)CC1C2(C)CCC2C(C)(C)C(OC3OC(CO)C(O)C(O)C3O)CCC21C [20(S)-Rh2] | 0.3 |  | permeability difference between 20(R)-Rh2 and 20(S)-Rh2 [3]: 15 folds
CC(C)=CCC[C@](C)(O)[C@H]1CC[C@]2(C)[C@@H]1[C@H](O)C[C@@H]1[C@@]3(C)CC[C@H](O[C@@H]4O[C@H](CO)[C@@H](O)[C@H](O)[C@H]4O[C@@H]4O[C@H](CO)[C@@H](O)[C@H](O)[C@H]4O)C(C)(C)[C@@H]3CC[C@]12C [Rg3, Ginsenoside Rg3] |  | less than 5% | 
CC(C)=CCC[C@](C)(O)[C@H]1CC[C@]2(C)[C@@H]1[C@H](O)C[C@@H]1[C@@]3(C)CC[C@H](O[C@@H]4O[C@H](CO)[C@@H](O)[C@H](O)[C@H]4O)C(C)(C)[C@@H]3CC[C@]12C [Rh2, ginsenoside Rh2] |  | less than 5% | 
